Results: the supplement of paper PMC11562712

Assay: first-order primary biodegradation rate constant k (sorption-corrected, fDis-corrected) (d-1); higher = faster biodegradation
Method: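 Modified OECD 309 water-sediment test. River water plus sieved sediment (50 g wet solid/L) from European river segments (DE, CH, ES, EL) was spiked with a mixture of 129 compounds at 1 ug/L each and incubated in the dark at river temperature for 10 days. The water phase was analysed by UHPLC-Orbitrap-MS. The first-order primary biodegradation rate constant k (d-1) is k_observed, corrected for dissipation in sterile sorption controls and divided by the dissolved fraction fDis; it was fitted over 3 replicate incubations. Invalid fits (p > 0.05, n < 5, not available, concentration increase) are excluded.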

[1] = river segment: Greece (EL) A_Contam, incubation temperature 19 °C
[2] = river segment: Spain (ES) B_Contam, incubation temperature 24 °C
[3] = river segment: Spain (ES) C_Contam, incubation temperature 24 °C
[4] = river segment: Spain (ES) L_Contam, incubation temperature 24 °C
[5] = river segment: Switzerland (CH) R_Contam, incubation temperature 17 °C
[6] = river segment: Germany (DE) H_Contam, incubation temperature 24 °C
[7] = river segment: Germany (DE) T_Pris, incubation temperature 24 °C
[8] = river segment: Greece (EL) G_Contam, incubation temperature 19 °C
[9] = river segment: Greece (EL) G_Pris, incubation temperature 19 °C
[10] = river segment: Greece (EL) L_Contam, incubation temperature 19 °C
[11] = river segment: Spain (ES) F_Pris_Salt, incubation temperature 24 °C
[12] = river segment: Switzerland (CH) C_Contam, incubation temperature 17 °C
[13] = river segment: Switzerland (CH) U_Contam, incubation temperature 17 °C
[14] = river segment: Switzerland (CH) U_Pris, incubation temperature 17 °C
[15] = river segment: Germany (DE) T_Contam, incubation temperature 24 °C

Compound | first-order primary biodegradation rate constant k [1] | first-order primary biodegradation rate constant k [2] | first-order primary biodegradation rate constant k [3] | first-order primary biodegradation rate constant k [4] | first-order primary biodegradation rate constant k [5] | first-order primary biodegradation rate constant k [6] | first-order primary biodegradation rate constant k [7] | first-order primary biodegradation rate constant k [8] | first-order primary biodegradation rate constant k [9] | first-order primary biodegradation rate constant k [10] | first-order primary biodegradation rate constant k [11] | first-order primary biodegradation rate constant k [12] | first-order primary biodegradation rate constant k [13] | first-order primary biodegradation rate constant k [14] | first-order primary biodegradation rate constant k [15]
CC1=CC(=O)NS(=O)(=O)O1 [Acesulfame] | 0.191 | 1.27 | 0.157 | 0.293 | 0.0997 | – | – | – | – | – | – | – | – | – | –
COc1cc(Cc2cnc(N)nc2N)cc(OC)c1OC [Trimethoprim] | 0.431 | 0.192 | 0.383 | 0.758 | 1.65 | 0.173 | 0.612 | 0.993 | 0.704 | 1.57 | 0.726 | 1.11 | 2.23 | 2.52 | –
O=C(O)Cc1ccccc1Nc1c(Cl)cccc1Cl [Diclofenac] | 0.0748 | 0.574 | 0.074 | 0.158 | – | 0.137 | – | – | – | 0.0701 | 0.0381 | – | – | – | 0.18
CCN(CC)CC(=O)Nc1c(C)cccc1C [Lidocaine] | 0.0177 | 0.0307 | 0.287 | 0.118 | 0.00379 | 0.0105 | – | – | 0.00116 | 0.0298 | – | 0.00975 | 0.0121 | 0.0138 | 0.00344
CC(C(=O)O)c1cccc(C(=O)c2ccccc2)c1 (stereo unspecified) [Ketoprofen] | 0.537 | 0.235 | 0.269 | 0.368 | 0.829 | 0.108 | 0.226 | 0.0301 | 0.36 | 0.285 | 0.0247 | 1.07 | 1.21 | 2.62 | 0.441
CC(C)NCC(O)COc1ccc(COCCOC(C)C)cc1 (stereo unspecified) [Bisoprolol] | – | 0.569 | 0.414 | 0.28 | 0.309 | 0.341 | 0.336 | 0.37 | 0.293 | 1.27 | 0.144 | 0.326 | 0.473 | 0.772 | 0.352
CNCCC(Oc1ccc(C(F)(F)F)cc1)c1ccccc1 (stereo unspecified) [Fluoxetine] | – | – | – | – | – | 0.797 | 3.25 | – | – | – | – | 0.0571 | 4.2 | 2.14 | –
COc1ccc(C(CN(C)C)C2(O)CCCCC2)cc1 (stereo unspecified) [Venlafaxine] | 1.22 | 0.0466 | – | 0.0394 | – | – | – | 0.204 | – | 1.2 | – | 0.00206 | 0.0953 | – | –
CCOC(=O)c1ccc(O)cc1 [Ethylparaben] | 0.0419 | 0.466 | 2.12 | 0.364 | – | – | – | 0.114 | – | 0.108 | – | – | 0.0177 | – | –
c1ccc([C@H]2CN3CCSC3=N2)cc1 [Levamisole] | 0.193 | 0.0276 | 0.0263 | 0.0585 | 0.0447 | – | 0.0857 | – | 0.133 | 0.21 | – | 0.0196 | 0.0845 | 0.0682 | 0.512
CN(Cc1cnc2nc(N)nc(N)c2n1)c1ccc(C(=O)N[C@@H](CCC(=O)O)C(=O)O)cc1 [Methotrexate] | – | – | – | – | 18 | 3.99 | 8.59 | – | – | 6.29 | 6.23 | – | – | – | –
CCCCc1nc(Cl)c(CO)n1Cc1ccc(-c2ccccc2-c2nnn[nH]2)cc1 [Losartan] | 0.323 | 0.157 | 0.105 | 0.299 | 0.149 | 0.417 | 0.123 | – | 0.781 | 0.343 | 0.0258 | 0.06 | 0.294 | 0.358 | 0.319
NCC1(CC(=O)O)CCCCC1 [Gabapentin] | 0.0518 | 0.811 | 0.119 | 0.235 | 0.109 | 0.0147 | – | – | 0.0145 | – | 0.119 | – | 0.0703 | 0.15 | 0.183
CCCCCCCCCCN [Decylamine] | 68.6 | – | 43.8 | – | 11.7 | 11.8 | 5.65 | 17.4 | 29.1 | – | 12.1 | 0.758 | – | – | 54.6
CCCCC1=NC2(CCCC2)C(=O)N1Cc1ccc(-c2ccccc2-c2nnn[nH]2)cc1 [Irbesartan] | – | – | – | 0.426 | – | 0.161 | – | – | 0.0725 | – | – | – | 0.0556 | – | –
CCNc1nc(NC(C)(C)C)nc(SC)n1 [Terbutryn] | 0.0617 | – | – | 0.134 | – | – | – | 0.247 | – | – | – | – | 0.116 | 0.068 | 0.0714
CN(C)C(=N)NC(=N)N [Metformin] | – | – | – | – | – | 0.0281 | 0.0208 | – | – | – | – | – | – | – | 0.0415
CNC(=C[N+](=O)[O-])NCCSCc1ccc(CN(C)C)o1 [Ranitidine] | 6.6 | 1.57 | 0.0642 | 3.75 | 0.559 | 0.498 | 17.5 | 1.42 | 28.8 | 3.75 | 0.103 | 0.639 | 0.756 | 0.596 | 28.6
Nc1nnc(-c2cccc(Cl)c2Cl)c(N)n1 [Lamotrigine] | – | – | – | – | – | – | – | 0.337 | 0.0465 | 0.0519 | – | – | – | – | 0.0823
